Data as given in US7951815B2, “Substituted 1,4,8-triazaspiro [4,5]decan-2-one compounds” (Gruenenthal GmbH, priority 2004, dated 2011).

test system: batrachotoxin (BTX) binding site of the sodium channel; assay: Affinity to the batrachotoxin (BTX) binding site of the sodium channel; details: Table II; rat cerebrocortex synaptosomes; test concentration not given

Compound	BTX inhibition
Cl.O=C(c1ccc(Cl)cc1)N1CCC2(CC1)N[C@@H](Cc1ccccc1)C(=O)N2Cc1ccc(F)cc1 (racemic) [Example 28, 3-(S,R)-benzyl-8-(4-chlorobenzoyl)-1-(4-fluorobenzyl)-1,4,8-triazaspiro[4,5]decan-2-one hydrochloride]	47
Cl.O=C(C(c1ccccc1)c1ccccc1)N1CCC2(CC1)N[C@@H](Cc1ccccc1)C(=O)N2Cc1ccccc1 [Example 56, 1,3-(S)-dibenzyl-8-diphenylacetyl-1,4,8-triazaspiro[4,5]decan-2-one hydrochloride]	67
COc1cccc(C(=O)N2CCC3(CC2)N[C@@H](Cc2ccccc2)C(=O)N3Cc2ccccc2)c1.Cl [Example 61, 1,3-(S)-dibenzyl-8-(3-methoxybenzoyl)-1,4,8-triazaspiro[4,5]decan-2-one hydrochloride]	41

same assay, conditions: Table III; rat cerebrocortex synaptosomes; test concentration not given

Compound	BTX inhibition
O=C(c1ccc(-c2ccccc2)cc1)N1CCC2(CC1)NCC(=O)N2Cc1ccccc1 [Example 72, 1-Benzyl-8-(biphenyl-4-carbonyl)-1,4,8-triazaspiro[4,5]decan-2-one]	39
Cc1onc(-c2c(F)cccc2Cl)c1C(=O)N1CCC2(CC1)NC(C(C)C)C(=O)N2CCOc1ccccc1 (stereo not shown) [Example 131, 8-[3-(2-Chloro-6-fluorophenyl)-5-methylisoxazole-4-carbonyl]-3-isopropyl-1-(2-phenoxyethyl)-1,4,8-triazaspiro[4,5]decan-2-one]	37
Cc1cccc(C(=O)N2CCC3(CC2)NC(CC(C)C)C(=O)N3Cc2ccccc2F)c1 (stereo not shown) [Example 132, 1-(2-Fluorobenzyl)-3-isobutyl-8-(3-methylbenzoyl)-1,4,8-triazaspiro[4,5]decan-2-one]	54
CCCCC(CC)C(=O)N1CCC2(CC1)NCC(=O)N2CCOc1ccccc1 (stereo not shown) [Example 133, 8-(2-Ethylhexanoyl)-1-(2-phenoxyethyl)-1,4,8-triazaspiro[4,5]decan-2-one]	35
CCOc1ccc(C(=O)N2CCC3(CC2)NC(Cc2ccccc2)C(=O)N3C)cc1 (stereo not shown) [Example 135, 3-Benzyl-8-(4-ethoxybenzoyl)-1-methyl-1,4,8-triazaspiro[4,5]decan-2-one]	31
CSCCC1NC2(CCN(C(=O)c3cccc(N(C)C)c3)CC2)N(Cc2cc(C)cc(C)c2)C1=O (stereo not shown) [Example 137, 8-(3-Dimethylaminobenzoyl)-1-(3,5-dimethylbenzyl)-3-(2-methylsulfanylethyl)-1,4,8-triazaspiro[4,5]decan-2-one]	59
O=C(c1ccc(F)c(F)c1)N1CCC2(CC1)NCC(=O)N2CCOc1ccccc1 [Example 142, 8-(3,4-Difluorobenzoyl)-1-(2-phenoxyethyl)-1,4,8-triazaspiro[4,5]decan-2-one]	32
CSCCC1NC2(CCN(C(=O)c3cccc(Cl)c3F)CC2)N(Cc2cc(C)cc(C)c2)C1=O (stereo not shown) [Example 156, 8-(3-Chloro-2-fluorobenzoyl)-1-(3,5-dimethylbenzyl)-3-(2-methylsulfanylethyl)-1,4,8-triazaspiro[4,5]decan-2-one]	60
CC(C)C1NC2(CCN(C(=O)COc3cccc(Cl)c3)CC2)N(CCOc2ccccc2)C1=O (stereo not shown) [Example 165, 8-[2-(3-Chlorophenoxy)acetyl]-3-isopropyl-1-(2-phenoxyethyl)-1,4,8-triazaspiro[4,5]decan-2-one]	63
CSCCC1NC2(CCN(C(=O)c3cccc(C)c3C)CC2)N(C)C1=O (stereo not shown) [Example 166, 8-(2,3-Dimethylbenzoyl)-1-methyl-3-(2-methylsulfanylethyl)-1,4,8-triazaspiro[4,5]decan-2-one]	47
CSCCC1NC2(CCN(C(=O)c3c(-c4ccccc4Cl)noc3C)CC2)N(Cc2cc(C)cc(C)c2)C1=O (stereo not shown) [Example 169, 8-[3-(2-Chlorophenyl)-5-methylisoxazole-4-carbonyl]-1-(3,5-dimethylbenzyl)-3-(2-methylsulfanylethyl)-1,4,8-triazaspiro[4,5]decan-2-one]	51
CCOc1ccc(C(=O)N2CCC3(CC2)NC(CC(C)C)C(=O)N3Cc2ccccc2)cc1 (stereo not shown) [Example 179, 1-Benzyl-8-(4-ethoxybenzoyl)-3-isobutyl-1,4,8-triazaspiro[4,5]decan-2-one]	46
CSCCC1NC2(CCN(C(=O)c3c(-c4c(F)cccc4Cl)noc3C)CC2)N(Cc2cccc(C#N)c2)C1=O (stereo not shown) [Example 181, 3-[8-[3-(2-Chloro-6-fluorophenyl)-5-methylisoxazole-4-carbonyl]-3-(2-methylsulfanylethyl)-2-oxo-1,4,8-triazaspiro[4,5]dec-1-ylmethyl]benzonitrile]	43
CN1C(=O)C(Cc2ccccc2)NC12CCN(C(=O)COc1ccccc1)CC2 (stereo not shown) [Example 184, 3-Benzyl-1-methyl-8-(2-phenoxyacetyl)-1,4,8-triazaspiro[4,5]decan-2-one]	62
CCCCC(=O)N1CCC2(CC1)NC(CCSC)C(=O)N2Cc1cc(C)cc(C)c1 (stereo not shown) [Example 189, 1-(3,5-Dimethylbenzyl)-3-(2-methylsulfanylethyl)-8-pentanoyl-1,4,8-triazaspiro[4,5]decan-2-one]	40
Cc1oc(C(C)(C)C)cc1C(=O)N1CCC2(CC1)NC(C(C)C)C(=O)N2CCOc1ccccc1 (stereo not shown) [Example 196, 8-(5-tert-Butyl-2-methylfuran-3-carbonyl)-3-isopropyl-1-(2-phenoxyethyl)-1,4,8-triazaspiro[4,5]decan-2-one]	52
CC(C)CC1NC2(CCN(C(=O)CC3CCCC3)CC2)N(Cc2ccc(F)cc2)C1=O (stereo not shown) [Example 197, 8-(2-Cyclopentylacetyl)-1-(4-fluorobenzyl)-3-isobutyl-1,4,8-triazaspiro[4,5]decan-2-one]	41

Compound	BTX inhibition
COC(=O)c1ccc(CN2C(=O)C(C(C)C)NC23CCN(C(=O)CC(C)(C)C)CC3)cc1 (stereo not shown) [Example 198, Methyl 4-[8-(3,3-dimethylbutyryl)-3-isopropyl-2-oxo-1,4,8-triazaspiro[4,5]dec-1-ylmethyl]benzoate]	30
CCCCN1C(=O)C(C(C)C)NC12CCN(C(=O)CC1CCCC1)CC2 (stereo not shown) [Example 201, 1-Butyl-8-(2-cyclopentylacetyl)-3-isopropyl-1,4,8-triazaspiro[4,5]decan-2-one]	42
CSCCC1NC2(CCN(C(=O)C=Cc3cccc(C(F)(F)F)c3)CC2)N(C)C1=O (stereo not shown) [Example 208, 1-Methyl-3-(2-methylsulfanylethyl)-8-[3-(3-trifluoromethylphenyl)acryloyl]-1,4,8-triazaspiro[4,5]decan-2-one]	33
C#CCN1C(=O)C(CCSC)NC12CCN(C(=O)c1ccc(-c3ccccc3)cc1)CC2 (stereo not shown) [Example 213, 8-(Biphenyl-4-carbonyl)-3-(2-methylsulfanylethyl)-1-prop-2-ynyl-1,4,8-triazaspiro[4,5]decan-2-one]	43
COc1ccc(CC(=O)N2CCC3(CC2)NC(CCSC)C(=O)N3Cc2ccc(F)cc2)cc1 (stereo not shown) [Example 215, 1-(4-Fluorobenzyl)-8-[2-(4-methoxyphenyl)acetyl]-3-(2-methylsulfanylethyl)-1,4,8-triazaspiro[4,5]decan-2-one]	32
CC(C)CC1NC2(CCN(C(=O)CCC3CCCC3)CC2)N(Cc2ccccc2F)C1=O (stereo not shown) [Example 220, 8-(3-Cyclopentylpropionyl)-1-(2-fluorobenzyl)-3-isobutyl-1,4,8-triazaspiro[4,5]decan-2-one]	62
CC(C)CC1NC2(CCN(C(=O)c3ccc(C(F)(F)F)c(F)c3)CC2)N(Cc2ccccc2)C1=O (stereo not shown) [Example 241, 1-Benzyl-8-(3-fluoro-4-trifluoromethylbenzoyl)-3-isobutyl-1,4,8-triazaspiro[4,5]decan-2-one]	58
CN1C(=O)C(Cc2ccccc2)NC12CCN(C(=O)C1COc3ccc(Cl)cc3C1)CC2 (stereo not shown) [Example 242, 3-Benzyl-8-(6-chloro-2H-chroman-3-carbonyl)-1-methyl-1,4,8-triazaspiro[4,5]decan-2-one]	42
CC(C)C1NC2(CCN(C(=O)C3COc4ccc(Cl)cc4C3)CC2)N(Cc2ccccc2C#N)C1=O (stereo not shown) [Example 245, 2-[8-(6-Chloro-2H-chroman-3-carbonyl)-3-isopropyl-2-oxo-1,4,8-triazaspiro[4,5]dec-1-ylmethyl]benzonitrile]	60
CC(C)C1NC2(CCN(C(=O)c3cccc(Cl)c3F)CC2)N(Cc2ccccc2C#N)C1=O (stereo not shown) [Example 247, 2-[8-(3-Chloro-2-fluorobenzoyl)-3-isopropyl-2-oxo-1,4,8-triazaspiro[4,5]dec-1-ylmethyl]benzonitrile]	32
COC(=O)c1ccc(CN2C(=O)CNC23CCN(C(=O)c2snnc2C)CC3)cc1 [Example 258, Methyl 4-[8-(4-methyl[1,2,3]thiadiazole-5-carbonyl)-2-oxo-1,4,8-triazaspiro[4,5]dec-1-ylmethyl]benzoate]	32
CCCCC(=O)N1CCC2(CC1)NCC(=O)N2Cc1cccc(C#N)c1 [Example 268, 3-(2-Oxo-8-pentanoyl-1,4,8-triazaspiro[4,5]dec-1-ylmethyl)benzonitrile]	31
O=C(c1ccnc(Cl)c1)N1CCC2(CC1)NCC(=O)N2Cc1ccccc1F [Example 300, 8-(2-Chloropyridin-4-carbonyl)-1-(2-fluorobenzyl)-1,4,8-triazaspiro[4,5]decan-2-one]	33
C=CCN1C(=O)C(CCSC)NC12CCN(C(=O)c1c(F)c(F)c(F)c(F)c1F)CC2 (stereo not shown) [Example 302, 1-Allyl-3-(2-methylsulfanylethyl)-8-pentafluorobenzoyl-1,4,8-triazaspiro[4,5]decan-2-one]	39
O=C(c1ccccc1C(F)(F)F)N1CCC2(CC1)NCC(=O)N2Cc1ccccc1F [Example 303, 1-(2-Fluorobenzyl)-8-(2-trifluoromethylbenzoyl)-1,4,8-triazaspiro[4,5]decan-2-one]	30
C=CCCC(=O)N1CCC2(CC1)NC(C(C)C)C(=O)N2CC=C (stereo not shown) [Example 307, 1-Allyl-3-isopropyl-8-pent-4-enoyl-1,4,8-triazaspiro[4,5]decan-2-one]	31
CCOC(=O)CN1C(=O)C(CCSC)NC12CCN(C(=O)c1ccc(C(F)(F)F)cc1)CC2 (stereo not shown) [Example 322, Ethyl [3-(2-methylsulfanylethyl)-2-oxo-8-(4-trifluoromethylbenzoyl)-1,4,8-triazaspiro[4,5]dec-1-yl]acetate]	36
